Laboratory results: patent US20090082423A1, “SOLUBLE EPOXIDE HYDROLASE INHIBITORS” (Arete Therapeutics, Inc., priority 2007, published 2009)

How the values were obtained:
[1] = system: soluble epoxide hydrolase (sEH); assay: Fluorescent assay for mouse and human soluble epoxide hydrolase (CMNPC substrate); type: biochemical; details: Conc 200 nM; recombinant sEH, CMNPC 5 μM, 30° C.; mouse or human enzyme not stated
Description: Fluorescent Assay for Mouse and Human Soluble Epoxide Hydrolase
Recombinant mouse sEH (MsEH) and human sEH (HsEH) were produced in a baculovirus expression system as previously reported. Grant et al., J. Biol. Chem., 268:17628-17633 (1993); Beetham et al., Arch. Biochem. Biophys., 305:197-201 (1993). The expressed proteins were purified from cell lysate by affinity chromatography. Wixtrom et al., Anal. Biochem., 169:71-80 (1988). Protein concentration was quantified using the Pierce BCA assay using bovine serum albumin as the calibrating standard. The preparations were at least 97% pure as judged by SDS-PAGE and scanning densitometry. They contained no detectable esterase or glutathione transferase activity which can interfere with the assay. The assay was also evaluated with similar results in crude cell lysates or homogenate of tissues.
The IC50s for each inhibitor were according to the following procedure:
Cyano(2-methoxynaphthalen-6-yl)methyl (3-phenyloxiran-2-yl)methyl carbonate (CMNPC; Jones P. D. et. al.; Analytical Biochemistry 2005; 343: pp. 66-75)
Bis/Tris HCl 25 mM pH 7.0 containing 0.1 mg/mL of BSA (buffer A)
CMNPC at 0.25 mM in DMSO.
Mother solution of enzyme in buffer A (Mouse sEH at 6 μg/mL and Human sEH at 5 μg/mL).
Inhibitor dissolved in DMSO at the appropriate concentration.
In a black 96 well plate, fill all the wells with 150 μL of buffer A.
Add 2 μL of DMSO in well A2 and A3, and then add 2 μL of inhibitor solution in A1 and A4 through A12.
Add 150 μL of buffer A in row A, then mix several time and transfer 150 μL to row B. Repeat this operation up to row H. The 150 μL removed from row H go to the trash.
Add 20 μL of buffer A in column 1 and 2, then add 20 μL of enzyme solution to column 3 to 12.
Incubate the plate for 5 minutes in the plate reader at 30° C.
During incubation prepare the working solution of substrate by mixing 3.68 mL of buffer A (4×0.920 mL) with 266 μL (2×133 μL) of substrate solution).
At t=0, add 30 μL of working substrate solution with multi-channel pipette labeled “Briggs 303” and start the reading ([S]final: 5 μM).
Read with ex: 330 nm (20 nm) and em: 465 nm (20 nm) every 30 second for 10 minutes. The velocities are used to analyze and calculate the IC50s.

SMILES | % Inh (percent inhibition) [1] | melting point
O=C(NCC1CCOCC1)NC12CC3CC(CC(C3)C1)C2 [Compound 1, 1-adamantan-1-yl-3-((tetrahydro-2H-pyran-4-yl)methyl)urea] | 89% | 196 to 198 °C
O=C(NCC1CCOCC1)Nc1ccc(C(F)(F)F)cc1 [Compound 2, 1-((tetrahydro-2H-pyran-4-yl)methyl)-3-(4-(trifluoromethyl)phenyl)urea] | 70% | 148 to 149 °C
O=C(Nc1ccc(C(F)(F)F)cc1)NC1CCOCC1 [Compound 3, 1-(tetrahydro-2H-pyran-4-yl)-3-(4-(trifluoromethyl)phenyl)urea] | 91% | 196 to 198 °C
O=C(Nc1ccc(C(F)(F)F)cc1)NC1CCS(=O)(=O)CC1 [Compound 4, 1-(1,1-dioxo-tetrahydro-2H-thiopyran-4-yl)-3-(4-(trifluoromethyl)phenyl)urea] | 92% | 196 to 198 °C
CC1(C)CC(NC(=O)Nc2ccc(C(F)(F)F)cc2)CC(C)(C)C1=O [Compound 5, 1-(3,3,5,5-tetramethyl-4-oxocyclohexyl)-3-(4-(trifluoromethyl)phenyl)urea] | 98% | 152 to 153 °C
CC1(C)CC(NC(=O)NC23CC4CC(CC(C4)C2)C3)CC(C)(C)C1=O [Compound 6, 1-adamantan-1-yl-3-(3,3,5,5-tetramethyl-4-oxocyclohexyl)urea] | 100% | 234 to 238 °C
O=C(NC1CCS(=O)(=O)CC1)NC12CC3CC(CC(C3)C1)C2 [Compound 7, 1-adamantan-1-yl-3-(1,1-dioxo-tetrahydro-2H-thiopyran-4-yl)urea] | 82% | 244 to 246 °C
O=C(NC1CCOCC1)NC12CC3CC(CC(C3)C1)C2 [Compound 8, 1-adamantan-1-yl-3-(tetrahydro-2H-pyran-4-yl)urea] | 90% | 239 to 242 °C
